For eleven compounds, GI50 and TGI results are on record in PubChem BioAssay (NCI).

What all share (assay): NCI tumour cell line growth inhibition, 48 h
The subject of test [1] is HS 578T breast.
For test [2], the system named is SR leukemia.
The subject of test [3] is M14 melanoma.
Test [4] deals with MOLT-4 leukemia.
The test system of test [5] is SNB-19 CNS.
For test [6], the system named is SNB-75 CNS.
Test [7] relates to K-562 leukemia.
For test [8], the system named is NCI-H460 lung.
Test [9] deals with SK-MEL-28 melanoma.
Test [10] concerns SF-539 CNS.

The structures appear in SMILES notation. “And” between values parts separate entries of the source, which are not always exact repeats. Equal entries are not always repeated.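 Cultured in 96-well plates, cells were exposed to test compound for 48 hours across five concentrations. GI50 marks 50% less growth. TGI marks complete inhibition of growth.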

With `Cc1cccc(N=C2c3cc([N+](=O)[O-])ccc3-c3c2cc([N+](=O)[O-])cc3[N+](=O)[O-])c1`, the GI50 in [1] was 11.3 µM; in test [2], 1.94 µM; in test [3] it was 2.2 µM; in test [4] it was 3.64 µM; in test [5], 14.3 µM; in test [6], 4.59 µM. The GI50 in test [7] was 2.9 µM; in test [8], 3.64 µM; in test [9], 13.3 µM; in test [10] it was 17 µM. Further, the TGI was 53.9 µM in test [1]; 5.36 µM in test [2]; 4.57 µM in test [3]; more than 100 µM in test [4]; 31.7 µM in [5]; 42.4 µM in [6]. Further, the TGI was found to be 10.5 µM in test [7], 14.4 µM in test [8], 31.3 µM in test [9] and 37.8 µM in test [10].
In the case of `O=C(O)CCC1CCC(c2cc(F)ccc2F)(S(=O)(=O)c2ccc(Cl)cc2)CC1` (stereo not drawn), the GI50 in [1] was 17.8 µM and 49.3 µM; in test [2], 25.5 µM and > 47.3 µM; in [3], 15.9 µM and > 100 µM; in test [4] it was 41.2 µM and > 59.7 µM; in test [5], 55.1 µM and > 100 µM; in test [6], 15.9 µM and > 72.2 µM. In addition, the GI50 in [7] is 34.6 µM and 34.7 µM; in test [8], 42.5 µM and > 100 µM; in [9], 25.5 µM and > 100 µM; in [10], 29.4 µM and > 100 µM. For the same compound, the TGI in test [1] was 55.4 µM and > 100 µM; in test [2], more than 100 µM; in test [3], 52.5 µM and > 100 µM; in test [4], more than 100 µM; in test [5], more than 100 µM; in [6] it was 55.8 µM and > 100 µM. Also, the TGI in test [7], in [8], in [9] and in test [10] was more than 100 µM in each case.
In the case of `O=C1/C(=C/C(Cl)=C/c2ccccc2)SC(=S)N1CCc1ccc(O)cc1`, the GI50 in test [1] is 3.24 µM; in [2], 0.86 µM; in [3], 2.42 µM; in [4], 2.2 µM; in test [5] it was 1.51 µM; in test [6], 1.31 µM. The GI50 in test [7] is 2.17 µM; in test [8] it was 2.08 µM; in test [9] it was 1.83 µM; in [10] it was 1.72 µM. For the same compound, the TGI in [1] is more than 100 µM; in test [2], more than 100 µM; in test [3], 9.7 µM; in test [4] it was more than 100 µM; in test [5] it was 2.95 µM; in test [6], 5.62 µM. Moreover, the TGI in test [7] is more than 100 µM; in test [8] it was 4.72 µM; in test [9], 3.93 µM; in test [10] it was 3.52 µM.
With `COc1ccc(F)cc1C(=O)c1cnc(NC2CCN(S(C)(=O)=O)CC2)nc1N`, the GI50 in [1] was 3.93 µM; in test [2], 0.885 µM; in test [3] it was 4.51 µM; in test [4], 2.66 µM; in [5], 1.8 µM; in [6], 3.97 µM. Also, the GI50 in test [7] was 6.25 µM; in test [8], 0.783 µM; in test [9] it was 3.38 µM; in [10], 3.29 µM. Further, the TGI in test [1] is 17.8 µM; in test [2] it was more than 14.8 µM; in test [3] it was more than 25 µM; in [4] it was more than 19 µM; in test [5], more than 25 µM; in test [6], 10.2 µM. The TGI in test [7] is more than 25 µM; in [8] it was more than 25 µM; in test [9], more than 16.4 µM; in test [10], 7.77 µM.
Regarding `O=C(Nc1ccc(Br)c(Cl)c1)c1cc(F)ccc1O`, the GI50 was 0.719 µM in test [1]; 0.547 µM in [2]; 0.585 µM in test [3]; 0.943 µM in test [4]; 0.729 µM in [5]; 0.591 µM in [6]. Moreover, the GI50 in [7] was 0.293 µM; in test [8], 0.675 µM; in [9], 0.421 µM; in test [10], 0.771 µM. Moreover, the TGI in test [1] was more than 15.5 µM; in [3], 3.1 µM; in test [4], 2.81 µM; in [5], more than 50 µM; in [6], 4.53 µM; in [7] it was more than 50 µM. For the same compound, the TGI was more than 14.8 µM in [8], 3.87 µM in test [9] and 6.32 µM in [10].
Consider `C=C[C@]1(C)C=C2C(=O)[C@@]3(O)OC(=O)[C@@]4(CCCC(C)(C)[C@H]34)[C@@]2(O)CC1`, for which the GI50 is 2.77 µM in test [1]; 1.03 µM in test [2]; 1.79 µM in [3]; 1.74 µM in test [4]; 6.33 µM in test [5]; 1.09 µM in [6]. The GI50 in [7] is 2.13 µM; in [8], 3.39 µM; in [9] it was 1.67 µM; in test [10] it was 1.37 µM. Moreover, the TGI in [1] was more than 100 µM; in test [2] it was 8.5 µM; in test [3] it was 3.82 µM; in test [4], 7.53 µM; in [5], 19.7 µM; in [6] it was 2.45 µM. The TGI in test [7] worked out at 10.1 µM; in test [8], 13.9 µM; in [9], 3.22 µM; in test [10], 2.76 µM.
For the compound `COc1cc(C(=O)n2nc(N3CCN(C)CC3)c3cc(N)ccc32)cc(OC)c1OC`, the GI50 in [1] was 12.8 µM; in test [2] it was 3.64 µM; in test [3], 3.74 µM; in [4] it was 3.78 µM; in test [5], 4.75 µM; in test [6], 4.39 µM. Further, the GI50 in [7] was 3.57 µM; in [8], 4.34 µM; in [9] it was 14 µM; in test [10], 2.86 µM. Further, the TGI is more than 100 µM in [1]; 53.3 µM in test [2]; 16.7 µM in test [3]; 43.9 µM in [4]; more than 100 µM in test [5]; more than 100 µM in test [6]. Besides, the TGI in [7] is 13.2 µM; in test [8] it was more than 100 µM; in test [9], 99.4 µM; in test [10], 10.1 µM.
As to `ON(CCc1ccccn1)Cc1ccccc1`, the TGI in [1], in test [2], in [3], in [4], in [5] and in [6] was more than 100 µM each time. Moreover, the TGI in test [7], in test [8], in [9] and in [10] was more than 100 µM in each case.
For `Cc1cc(C)nc(SC2=C(Nc3cccc(Cl)c3)C(=O)N(Cc3ccccc3)C2=O)n1`, the GI50 in [1] was more than 170 µM; in test [2], more than 170 µM; in [3], 39.6 µM; in test [4], more than 170 µM; in test [5], more than 170 µM; in [6], more than 170 µM. Further, the GI50 was 5.25 µM in test [7], more than 170 µM in [8], more than 170 µM in test [9] and more than 170 µM in [10]. Also, the TGI in test [1], in test [2], in [3], in [4], in test [5] and in test [6] was more than 170 µM throughout. Also, the TGI in [7], in test [8], in test [9] and in [10] was more than 170 µM throughout.
`CC1(C)C2CCC13C(=O)C1OC3(C2)C2C(=O)c3c(O)ccc(O)c3C(=O)C12` (stereo not drawn): the TGI in test [1] is more than 54.4 µM; in [2], 17.1 µM; in [3], 29.2 µM; in test [4] it was more than 46.6 µM; in [5], more than 100 µM; in [6], more than 69.3 µM. Also, the TGI in test [7] is more than 59.1 µM; in [8], more than 100 µM; in [9], more than 100 µM; in [10], more than 100 µM. Moreover, the GI50 in [2] was 5.17 µM; in [3], 14.1 µM; in test [4] it was 5.93 µM; in test [5], 61.5 µM; in test [6] it was more than 44.4 µM; in test [7] it was 21.2 µM. Moreover, the values for the GI50 in test [8], in [9] and in test [10] were 36.8 µM, 36 µM and 48 µM, respectively.
Consider `CO[C@H](C(=O)N[C@@H](CCCCNC(=O)OCc1ccccc1)C(=O)OC(C)(C)C)[C@@H]1Cc2cc3cc(OC4CC(OC5CC(O)C(O)C(C)O5)C(O)C(C)O4)c(C)c(O)c3c(O)c2C(=O)[C@H]1OC1CC(OC2CC(OC3CC(C)(O)C(O)C(C)O3)C(O)C(C)O2)C(O)C(C)O1` (stereo partly drawn), for which the GI50 in test [1] was 1.05 µM; in [2], 0.319 µM; in test [3] it was 0.879 µM; in test [4], 0.381 µM; in test [5], 0.52 µM; in test [6] it was 0.541 µM. Moreover, the GI50 in test [7] is 0.635 µM; in test [8], 0.364 µM; in [9], 0.468 µM; in test [10], 0.559 µM. Moreover, the TGI in test [1] is 5 µM; in test [2], more than 10 µM; in [3], 2.48 µM; in test [4], 2.73 µM; in [5], 2.6 µM; in test [6], 1.97 µM. In addition, the TGI in [7] was more than 10 µM; in [8] it was 1.49 µM; in [9], 1.87 µM; in test [10], 3.08 µM.
